Source: PMC2225448 (Structure(London, England:1993), 2007)

Target: T1, SOCS4/ElonginBC (Homo sapiens, UniProt Q15369+Q15370+Q8WXH5)
T1 construct: Human SOCS4 (amino acids 274–437); made in house; host or cells: E. coli BL21(DE3)
Test: ITC binding of phosphotyrosine peptides to SOCS4/ElonginBC
Settings: 50 mM HEPES pH 7.5, 150 mM NaCl, 1 mM DTT, 20°C; for KB × 10^5: association constant, ± curve fitting error

[1] = 0.3–0.4 mM peptide injected into 15 μM protein, single binding site model

T1 sequence (Q8WXH5 274-437): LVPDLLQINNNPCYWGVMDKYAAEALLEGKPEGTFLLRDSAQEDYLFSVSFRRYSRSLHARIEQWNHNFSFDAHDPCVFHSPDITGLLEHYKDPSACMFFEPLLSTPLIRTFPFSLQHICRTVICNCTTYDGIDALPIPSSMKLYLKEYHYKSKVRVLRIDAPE
T1 sequence (Q15369 17-112 partner limits assumed): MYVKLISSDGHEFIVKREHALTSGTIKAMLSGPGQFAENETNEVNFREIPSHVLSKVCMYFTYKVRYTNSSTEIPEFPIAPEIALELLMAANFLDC
T1 sequence (Q15370 whole entry partner, the tested form may be a part): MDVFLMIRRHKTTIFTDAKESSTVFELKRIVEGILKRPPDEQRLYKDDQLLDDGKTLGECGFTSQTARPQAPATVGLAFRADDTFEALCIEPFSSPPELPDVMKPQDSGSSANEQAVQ
From the text: Blank titrations were subtracted from binding data, and data were processed by using ORIGIN software provided with the instrument.

Row | Compound | KB × 10^5 | KD [1] | Kd [1] [µM]
1 | CC[C@H](C)[C@H](NC(=O)[C@H](Cc1ccc(O)cc1)NC(=O)[C@@H](NC(=O)[C@H](Cc1ccc(OP(=O)(O)O)cc1)NC(=O)[C@H](CC(N)=O)NC(=O)[C@H](CC(N)=O)NC(=O)CNC(=O)[C@@H](N)CC(N)=O)C(C)C)C(=O)N[C@@H](CC(=O)O)C(=O)N1CCC[C@H]1C(=O)N[C@H](C(=O)O)[C@@H](C)O [KIT pY568] | 3.43 ± 0.24 10^5 M^−1 |  | 
2 | CC[C@H](C)[C@H](NC(=O)[C@@H](NC(=O)[C@H](Cc1ccc(OP(=O)(O)O)cc1)NC(=O)[C@H](CCC(=O)O)NC(=O)[C@H](Cc1ccccc1)NC(=O)[C@H](CO)NC(=O)[C@H](C)N)[C@@H](C)O)C(=O)N[C@@H](CC(C)C)C(=O)N[C@@H](CC(=O)O)C(=O)N1CCC[C@H]1C(=O)N[C@@H](CO)C(=O)O [EpoR pY402] | 1.30 ± 0.16 10^5 M^−1 |  | 
3 | CC(C)[C@H](NC(=O)[C@H](CCCCN)NC(=O)[C@H](Cc1ccc(O)cc1)NC(=O)[C@H](Cc1ccc(OP(=O)(O)O)cc1)NC(=O)[C@H](CCC(=O)O)NC(=O)[C@H](CCCCN)NC(=O)[C@H](CC(=O)O)NC(=O)[C@@H](N)CCC(N)=O)C(=O)N[C@@H](CCCCN)C(=O)N[C@@H](CCC(=O)O)C(=O)N1CCC[C@H]1C(=O)NCC(=O)O [JAK2 pY1007] | 3.43 ± 0.25 10^5 M^−1 | low micromolar | < 3
